Data set [1] can be described thus: High-sensitivity detection of citrate (UV-Vis absorption and fluorescence titration). To be noted: pH 7.4, 10 mM HEPES (2 vol % DMSO). As for the experimental part:
The initial citrate tracking ability of the citrate detection sensor including ARBD was evaluated by using UV-Vis absorption spectrometry using ARBD at pH 7.4 in the presence of 10 mM of HEPES buffer solution (2 vol % DMSO). Referring to FIG. 7A to FIG. 7C, it is possible to determine a change in fluorescence spectrum of ARBD when adding citrate at a concentration increasing linearly. […] The absorption intensity at 346 nm is decreased whenever citrate is added and a new peak position appears at 400 nm. In addition, as shown in FIG. 7A to FIG. 7C, it can be seen that an increase in concentration of citrate affects both the fluorescence intensity and the fluorescence wavelength. Further, it can be seen that when the concentration of citrate is increased from 0 to 800 nM for the citrate detection sensor including 2 μM of ARBD at pH 7.4 in the presence of 10 mM of HEPES buffer solution (2 vol % DMSO), the maximum fluorescence intensity is increased linearly to 548 nm. It can be also seen that when the concentration of citrate is increased to 950 nM, the peak at 548 nm is increased linearly while causing no change in wavelength.

Data set [2] relates to PC3 cells. Put plainly: Fluorescence expression of the citrate detection sensor in living PC3 cells. The data set is classed as cell-based. To be noted: ARBD 2 μM, cultured 30 minutes. The method, then:
The citrate detection sensor was evaluated in terms of its probe capability in living cells (PC3). […] Particularly, after the citrate sensor including ARBD (2 μM) was cultured for 30 minutes, the image in PC3 cells was observed.
FIG. 9A to FIG. 9C show the fluorescence expressed generally when ARBD is introduced to prostate cancer cells. The image (FIG. 9C) of the expressed fluorescence (FIG. 9A) overlapped with the photo image (FIG. 9B) of the cell lines is shown between them. Then, green fluorescence expressed when adding citrate to the detection sensor inserted to the cell lines was observed. The image (FIG. 9D) after adding citrate, the photo image (FIG. 9E) thereof and their overlapped image (FIG. 9F) are shown in FIG. 9D to FIG. 9F.

A short description of data set [3]: Selectivity and interference of the citrate detection sensor. As for the experimental part:
The citrate detection sensor was used to test the selectivity and interference capability to the related similar species for the detection of the other biological carboxylate and citrate. For this test, 1 μM of citrate and 0.5 mM of the other ions were added ((1) sensor, (2) citrate, (3) fumarate, (4) benzoate, (5) glutamate, (6) succinate, (7) malonate, (8) oxalate, (9) acetate, (10) phosphate, (11) sulfite, and (12) sulfate).
Referring to FIG. 8C, it can be seen that even when the other ionic substances have a concentration at least 500 times higher than the concentration of citrate, the citrate detection sensor is reactive selectively with citrate without any interference under high sensitivity. In addition, since it is well known that boronate is a diol sensor, selectivity was also determined for the other materials having a diol moiety, such as hydrogen peroxide (H2O2), glucose, fructose, sucrose, dopamine species, or the like. […] Although the two analytes undergo a reaction in response to the fluorescence intensity, it can be seen that citrate emits green fluorescence and H2O2 emits blue fluorescence. Thus, it can be seen that since only citrate emits green fluorescence in a biological sample at a concentration of ‘μM’ scale, it is possible to detect citrate with ease by the naked eyes through the citrate detection sensor.

The nature of data set [4]: Photophysical properties of the citrate detection sensor in the presence and absence of citrate. The data set is classed as physicochemical. As for the experimental part: Meanwhile, referring to FIG. 5, it can be seen that the citrate detection sensor not subjected to reaction with citrate expresses (blue) fluorescence while emitting weak fluorescence at 346 nm and 458 nm. On the contrary, when citrate is added to the citrate detection sensor including 2 μM of ARBD in the presence of 10 mM of 4-(2-hydroxyethyl)-1-piperazineethane sulfonic acid (HEPES) buffer (2 vol % DMSO) at pH 7.4, it can be seen that strong fluorescence appears at 548 nm together with a dramatic color change from blue to green. […] However, such a change in fluorescence is differentiated preferentially by visualization.

Data set [5] is described as follows: Job plot and reaction kinetics of the sensor including ARBD with citrate. Conditions: reaction with citrate; plot of ln(Fmax−F)/Fmax vs time. From the text: To understand the bonding behavior in the reaction between the citrate detection sensor including ARBD and citrate, the reaction was investigated by using the Job plot.
It can be seen from FIG. 3 that the maximum absorption intensity appears at a molar fraction of 0.5. Thus, it can be seen that a 1:1 complex is formed during the reaction of the citrate detection sensor with citrate. In this case, the reaction kinetics may be expressed by −kt=ln(Fmax−F)/Fmax (wherein k=rate constant, and ‘F’ and ‘Fmax’ represent the fluorescence intensity at time ‘t’). In addition, the maximum intensity reaction value accomplished after the completion of the reaction was calculated by using the plot of ‘ln(Fmax−F)/Fmax vs time’ as shown in FIG. 4.

The nature of data set [6]: Fluorescence intensity as a function of time and pH in the presence of citrate. The data set is classed as physicochemical. The method, then: Meanwhile, FIG. 6A to FIG. 6C show a graph illustrating a change in fluorescence intensity of the citrate detection sensor as a function of time in the presence of different concentrations of citrate (0-0.9 μM), a graph illustrating fluorescence emission intensity of ARBD and citrate at different pH values and a fluorescence image thereof, respectively.
When optimizing the determination condition in FIG. 6A, it can be seen that the maximum value of fluorescence intensity is accomplished within about 15 minutes. […] Thus, it can be seen that when citrate is introduced to the citrate detection sensor, fluorescence enhancement may be varied with pH.

As to `CC1(C)OB(c2ccc(-c3nc(-c4ccc(-c5nc(-c6ccccc6)c(-c6ccccc6)[nH]5)cc4)no3)cc2)OC1(C)C` [ARBD, 5-(4-(4,4,5,5-tetramethyl-1,3,2-dioxaborolan-2-yl)phenyl)-3-(4-(4,5-diphenyl-1H-imidazol-2-yl)phenyl)-1,2,4-oxadiazole], the “detection limit for citrate” value in data set [1] (S/N=3, 2 μM ARBD) worked out at 10 nM. The “new absorption peak position on addition of citrate” value in data set [1] (citrate 0 to 12 μM) was 400 nm. The molecule also showed an absorption peak in data set [1] (initial stage, no citrate) of 346 nm. The “fluorescence in cells after adding citrate” value in data set [2] is “reacts with citrate to express a green color”. Moreover, the “selectivity: fluorescence enhancement by citrate versus other ions” value in data set [3] (1 μM citrate, 0.5 mM fumarate, benzoate, glutamate, succinate, malonate, oxalate, acetate, phosphate, sulfite, sulfate) is given as “only citrate can induce fluorescence enhancement”. Moreover, the “selectivity versus materials having a diol moiety” value in data set [3] (H2O2, glucose, fructose, sucrose, dopamine species, citrate emits green, H2O2 blue fluorescence) was “reacts only with citrate and hydrogen peroxide”. Also, the “interference of other ionic compounds with detection of citrate” value in data set [3] (other species at least 500 times higher concentration than citrate) is recorded as “no effect upon the detection of citrate”. In addition, in data set [4], the Fluorescence quantum yield worked out at 0.18, the “Maximum absorption wavelength (λabs)” value stood at 352 and the “Maximum emission wavelength (λemiss)” value is on record as 458. The molecule also registered a fluorescence emission wavelength in data set [4] (citrate added, 2 μM ARBD, 10 mM HEPES buffer (2 vol % DMSO), pH 7.4, strong fluorescence, color change blue to green) of 548 nm. Moreover, in data set [4] (sensor not subjected to reaction with citrate, weak (blue) fluorescence), the fluorescence emission wavelength amounted to 458 nm. The “k (reaction rate constant)” value in data set [5] was determined as 0.148 min⁻¹. The “pH of highest and stable fluorescence intensity” value in data set [6] (ARBD and citrate at different pH values) is 7-8 pH. In addition, the “time to maximum value of fluorescence intensity” value in data set [6] (citrate 0-0.9 μM) was ≤ 15 min. Moreover, the “stability of fluorescence intensity after reaction with citrate” value in data set [6] (citrate 0-0.9 μM, whole concentration range) is “maintained constantly to 60 minutes”.

These data come from US10578622B2, “Sensors for detecting citrate, and method of detecting citrate using the same” (KOREA INSTITUTE OF SCIENCE AND TECHNOLOGY, priority 2017, dated 2020).
